# Measurements: US7538120B2, “Method of treating inflammatory diseases” (Array Biopharma Inc., priority 2003, dated 2009)
# “Also recorded” adds a separate entry of the source.
# Key:
# [1] = test system: adjuvant-induced arthritis in rats; assay: Adjuvant-induced arthritis (AIA) in rats; assay type: in vivo
# Method: Male Lewis rats (7-9 weeks of age; 8 per group for arthritis, 4 per group for normal control) were acclimated for 7 days after arrival.
# Acclimated animals were randomized into groups by body weight and then anesthetized with Isoflurane and given lipoidal amine (LA) in Freund's complete adjuvant (100 μL injection of 7 mg LA, intradermal administration at the base of the tail, Day 0).
# Caliper measurements of normal (pre-disease) right and left ankle joints were taken on day 7 post-adjuvant injection. On day 8, dosing began for vehicle and AR-14 treatment groups. Methotrexate treatment (0.075 mg/kg) began on day 0 prior to adjuvant injection.
# Once enrolled in the treatment group, treatment with once daily oral doses of AR-14 (1, 3, 10 or 30 mg/kg) was initiated. […] Animals receiving vehicle or compound were enrolled and daily dosing was initiated using a volume of 5 mL/kg for oral solutions on days 8-14. Rats were weighed on days 8-14 and caliper measurements of ankles were taken every day. Final body weights and caliper measurements of ankles and paws were taken on day 15. On day 15, animals were euthanized, both hind paws were removed, and the hind paws weighed and then placed in formalin for histopathologic analyses. Spleens were also removed, weighed and placed in formalin for histopathologic analyses.
# [2] = test system: MEK; assay: MEK inhibition in vivo (stated in summary, no method given)
# [3] = test system: indomethacin-induced IBD in rats; assay: Indomethacin-induced inflammatory bowel disease (model of Crohn's disease) in rats; assay type: in vivo
# Method: This study evaluated AR-14 (PO, QD) in a model of Crohn's disease (indomethacin induced intestinal injury) in rats to determine if beneficial effects could be detected in this IBD model.
# Rats received two subcutaneous administrations of indomethacin (7.5 mg/kg, in 5% NaHCO3) spaced 24 hours apart. Rats received once daily oral doses of vehicle, AR-14 (1, 3, 10 or 30 mg/kg) or dexamethasone (0.1 mg/kg). Rats were euthanized and evaluated for effects of treatment at day 4 post-initial indomethacin injection. Body weights were taken as well as intestinal weights per 10 cm of area at risk.
# A clinical scoring index (Table 8) was used to assess disease progression. Intestines were scored for gross lesions and multiple sections of gut taken for histology (5 sections per rat spaced equally along area at risk).
# Five equally spaced sections from area at risk were scored for necrosis and inflammation (0,0) (1,3) etc., according to the criteria in Tables 9 and 10.
# [4] = test system: type II collagen-induced arthritis in rats; assay: Established type II collagen-induced arthritis (CIA) in rats; assay type: in vivo
# Method: Type II collagen-induced arthritis (CIA) in rats is an experimental model of arthritis that has a number of pathologic, immunologic, and genetic features in common with rheumatoid arthritis.
# Female Lewis rats (7-9 weeks of age; 8 per group for arthritis, 4 per group for normal control) were acclimated for 7 days after arrival.
# Acclimated animals were anesthetized with Isoflurane. The disease was induced by immunization of the rats with type II collagen (equal mixture of 4 mg/mL bovine type II collagen in 0.01 N acetic acid and Freund's incomplete adjuvant) by injection (day 0). On day 6, the rats were anesthetized again for the second collagen injection. Each animal received 300 μL of the collagen mixture on days 0 and 6, which was spread over 3 sites on the back.
# Caliper measurements of normal (pre-disease) right and left ankle joints were taken on day 9 post-collagen injection. On days 10-11, onset of arthritis occurred and rats were randomized into treatment groups. Randomization into each group was done after ankle joint swelling was established in at least one hind paw.
# Once enrolled in the treatment groups, treatment with once daily oral dosing of AR-14 (1, 3, 10, 30 or 60 mg/kg) or indomethacin (1 mg/kg) was initiated. Animals receiving vehicle or compound were enrolled and daily dosing was initiated using a volume of 5 mL/kg for oral solutions. ENBREL (etanercept) treatment was on days 11 and 15 (10 mg/kg) by subcutaneous administration. Rats were weighed on days 11-18 and caliper measurements of ankles were taken every day. Final body weights were taken on day 19. On day 19, animals were euthanized, both hind paws and knees were removed, hind paws were weighed and then (with knees) placed in formalin.
# Following 1-2 days in fixative and then 4-5 days in decalcifier, the ankle joints and knees were processed, embedded, sectioned and stained with toluidine blue.
# A clinical scoring index was used to assess disease progression. Collagen arthritic ankles and knees were given scores of 0-5 for inflammation, pannus formation and bone resorption according to the criteria in Tables 1-7.
# Clinical data for ankle joint diameter were analyzed by determining the area under the dosing curve (AUC). For calculation of AUC, the daily measurements of ankle joints (using a caliper) for each rat were entered into Microsoft Excel and the area between the treatment days after the onset of disease to the termination day was computed. Means for each group were determined and percent inhibition from arthritis controls was calculated by comparing values for treated and normal animals. Data were analyzed by the Mann Whitney or Student's t test. Paw weights and histologic parameters (mean±SE) for each group were analyzed for differences using the Mann Whitney or Student's t test. In both cases, significance was set at p≦0.05.
# Percent inhibition of paw weight and AUC was calculated using the following formula: % Inhibition=A−(B/A)×100
# wherein A=(Mean Disease Control−Mean Normal) and B=(Mean Treated−Mean Normal).
# [5] = test system: carrageenan paw edema in rats; assay: Carrageenan paw edema model in rats; assay type: in vivo, rat; details: for paw weight: 3, 10 and 30 mg/kg oral, 2 h before carrageenan, 4 h after injection, FIG. 11; for ED50: Rattus norvegicus, oral, single dose, read-out: ED50 (paw weight); for activity compared with indomethacin: vs indomethacin 2 mg/kg (positive control)
# Method: The rat carrageenan paw edema model of inflammation was utilized to evaluate the effectiveness of AR-13 and AR-14 in ameliorating swelling and inflammation.
# Male Lewis rats (7-9 weeks of age; 10 per group) were acclimated for at least 7 days after arrival.
# Acclimated animals were randomized into groups by body weight. Animals were treated orally with AR-13 or AR-14 (3, 10 or 30 mg/kg) or with a positive control (indomethacin, 2 mg/kg). After 2 hours, the animals were anesthetized with Isoflurane and given an intradermal injection of 1.2% carrageenan into the right hind footpad. Four hours after the carrageenan injection, the animals were sacrificed with carbon dioxide inhalation and both paws were removed at the medial malleolus and weighed. The difference in weight between the right (carrageenan) and left (normal) paws was calculated.
# [6] = 10 and 30 mg/kg vs dexamethasone 0.1 mg/kg
smiles,measurement,setting,value
"O=C(NOCCO)c1cn2ccnc2c(Cl)c1Nc1ccc(Br)cc1Cl [AR-14, 7-(4-bromo-2-chlorophenylamino)-8-chloroimidazo[1,2-a]pyridine-6-carboxylic acid (2-hydroxyethoxy)-amide]",progression of established disease,[1]; 30 mg/kg,stopped the progression of established disease and causes improvement to normal
same,body weight loss,"[1]; 30 mg/kg, after 15 days, FIG. 5",significantly inhibited
same,joints (paw weight study),"[1]; 30 mg/kg, after 15 days, comparable to methotrexate",Near normal joints with minimal inflammation
same,splenomegaly (relative spleen weight),"[1]; 3, 10 and 30 mg/kg, after 15 days, FIG. 7",significantly inhibited
same,inhibition of splenomegaly compared with methotrexate,[1]; 10 and 30 mg/kg,comparable to that seen with methotrexate
same,activity compared with methotrexate,[1]; AR-14 30 mg/kg vs methotrexate 0.075 mg/kg,equivalent to methotrexate
same,tolerability,"[1]; all doses administered (1, 3, 10, 30 mg/kg, once daily oral)",well tolerated
same,ankle swelling (paw diameter) compared to vehicle control,"[1]; all doses tested, over 15 days, FIG. 4",significantly inhibited
same,paw weight gain (edema/inflammation) compared to vehicle control,"[1]; all doses, after 15 days, FIG. 6",significantly inhibited
same,acute gross and microscopic inflammation,[1]; once daily oral 30 mg/kg,reversal
same,selectivity for MEK in vivo,[2],selective inhibitor of MEK in vivo
same,histopathology of the gut (necrosis and inflammation scored) compared with dexamethasone,"[3]; 30 mg/kg, FIG. 10",significantly more efficacious than dexamethasone
same,small intestine weight gain as a result of edema/inflammation,"[3]; 3, 10 and 30 mg/kg, after 4 days, FIG. 9",significantly inhibited
same,inhibition of gross lesion score compared with dexamethasone,[3]; [6],significantly better than dexamethasone
same,"inhibition of intestinal inflammation and edema, small intestine necrosis and inflammation compared with dexamethasone",[3]; [6],significantly better than dexamethasone
same,gross lesion score (small intestine),"[3]; all doses (1, 3, 10, 30 mg/kg), after 4 days, FIG. 8",significantly inhibited
same,tolerability,[3]; all doses administered,well tolerated
same,inhibition of disease (gut score and weight and microscopic changes),[3]; once daily dosing at 10 mg/kg,significant inhibition
same,progression of established disease (arthritis),[4]; 10 mg/kg once daily oral,stopped the progression; also recorded: significantly inhibited
same,ankle histopathology (joints),"[4]; 10 mg/kg, after 7 days",Near normal joints with minimal inflammation
same,"established disease, improvement",[4]; 60 mg/kg once daily oral,improvement to normal
same,"pannus formation, cartilage damage and bone resorption (ankle histopathology)","[4]; 1 and 3 mg/kg, after 7 days, FIG. 3",significantly inhibited
same,ankle histopathology compared with indomethacin or ENBREL,[4]; AR-14 10 mg/kg,significantly better than indomethacin or ENBREL
same,activity on ankle diameter compared with ENBREL (etanercept),[4]; AR-14 10 mg/kg vs ENBREL 10 mg/kg s.c.,better than that of ENBREL
same,activity on ankle diameter compared with indomethacin,[4]; AR-14 10 mg/kg vs indomethacin 1 mg/kg,equivalent to indomethacin
same,ED50,"[4]; Rattus norvegicus, 168 h, after 7 days, once daily oral, read-out: ED50 (inhibition of body weight loss)",4.57 mg/kg
same,tolerability,"[4]; all doses administered (1, 3, 10, 30, 60 mg/kg, once daily oral)",well tolerated
same,ankle swelling (ankle/paw diameter) compared to vehicle control,"[4]; all doses tested (1-60 mg/kg), over 7 days, FIG. 1",significantly inhibited
same,body weight loss,"[4]; all doses tested, after 7 days, FIG. 2",significantly inhibited
same,joint destruction,"[4]; dose of 1 mg/kg, 1 mg/kg",significantly inhibited; also recorded: significant inhibition
same,body weight,"[4]; doses of 30 and 60 mg/kg, after 7 days",near normal body weights
same,acute gross and microscopic inflammation,[4]; once daily oral 10 mg/kg,reversal
same,paw weight,[5],significantly inhibit
same,ED50,[5],~4 mg/kg
same,activity compared with indomethacin,[5],superior to the positive control indomethacin
"O=C(NOCCO)c1cn2ccnc2c(Cl)c1Nc1ccc(Br)cc1F [AR-13, 7-(4-bromo-2-fluorophenylamino)-8-chloroimidazo[1,2-a]pyridine-6-carboxylic acid (2-hydroxyethoxy)-amide]",paw weight,[5],significantly inhibit
same,ED50,[5],~10 mg/kg
same,activity compared with indomethacin,[5],superior to the positive control indomethacin
